Legend:
VSV = type: cell-based, Vesicular stomatitis virus; conditions: 10 IU/ml, human GM 2504 fibroblast cell line
HSV-1 = test: Virus yield reduction, HSV-1; type: cell-based, Herpes simplex, Type 1; conditions: 100 IU/ml, human GM 2504 fibroblast cell line
S. albus = test: Antibacterial action, % killing (Table II), S. albus; type: cell-based, Staphylococcus albus; conditions: 50 μg/ml peptide, 10^7 bacterial cells/ml, 20 min, 37°
Method: (§1) To test antibacterial action of the polypeptides, the following protocol was employed. Various species at 10^7 bacterial cells/ml are incubated for 20 min at 37° with 50 μg/ml of the candidate peptide. Colony counts (viable organisms) are made at the outset of the incubation--beforeaddition of the candidate peptide--and after 20 min of incubation with the candidate peptide.

S. aureus 502A = test: Antibacterial action, % killing (Table II), S. aureus 502A; type: cell-based, Staphylococcus aureus; conditions: 50 μg/ml peptide, 10^7 bacterial cells/ml, 20 min, 37°
Method: as §1

L. monocytogenes = test: Antibacterial action, % killing (Table II), L. monocytogenes; type: cell-based, Listeria monocytogenes; conditions: 50 μg/ml peptide, 10^7 bacterial cells/ml, 20 min, 37°
Method: as §1

E. coli = test: Antibacterial action, % killing (Table II), E. coli; type: cell-based, Escherichia coli; conditions: 50 μg/ml peptide, 10^7 bacterial cells/ml, 20 min, 37°
Method: as §1

Ps. aeruginosa = test: Antibacterial action, % killing (Table II), Ps. aeruginosa; type: cell-based, Pseudomonas aeruginosa; conditions: 50 μg/ml peptide, 10^7 bacterial cells/ml, 20 min, 37°
Method: as §1

S. marscescens = test: Antibacterial action, % killing (Table II), S. marscescens; type: cell-based, Serratia marscescens; conditions: 50 μg/ml peptide, 10^7 bacterial cells/ml, 20 min, 37°
Method: as §1

[1] = system: Staphylococcus aureus 566; test: Antibacterial activity of rabbit granulocyte peptides (Table III), S. aureus 566; type: cell-based; conditions: 50 μg/ml, 20 min, 37° C., 10 mM sodium phosphate buffer pH 7.4
Method: (§2) The procedure parallels that reported in Lehrer et al., Infection and Immunity (1983) 42:10-14. […] The subculture was grown at 37° C. for 4 h with shaking to provide mid-logarithmic phase organisms that were washed twice with buffer by centrifugation (2000×g, 10 min), and then quantitated spectrophotometrically at 620 nm, with reference to previously established CFU/Optical Density relationships. Bacteria were suspended and experiments were performed in 10 mM sodium phosphate buffer, pH 7.4. In some experiments, buffers were supplemented with 0.14 M NaCl ("high" ionic strength). […] In some experiments, 10 mM phosphate buffer with a pH of 5.8 and conductivity of 1.36 mMHO was used. Peptide "stock solutions" were prepared at 500 μg/ml (microbiuret assay) in 0.01% acetic acid, and stored at -20° C. Typically, incubation mixtures contained 1×10^5 bacterial CFU and 5 μg of peptide in 100 μl of buffer. After incubation for 20 min at 37° C., 900 μl of the same buffer was added, and two additional serial tenfold dilutions were made with that buffer. Duplicate 100 μl aliquots from the three serial dilutions were spread over appropriate nutrient agar plates and incubated for 24-72 h to insure full colony development. Killing of microorganisms was expressed as the logarithm10 No /N, where No represented the initial colony count and N represented the colony count after incubation with peptide. There was no significant alteration in colony count when any of the test organisms were exposed to peptide-free buffer for 20 min.

[2] = system: Staphylococcus aureus 502A; test: Antibacterial activity of rabbit granulocyte peptides (Table III), S. aureus 502A; type: cell-based; conditions: 50 μg/ml, 20 min, 37° C., 10 mM sodium phosphate buffer pH 7.4
Method: as §2

[3] = system: Staphylococcus aureus J.F.; test: Antibacterial activity of rabbit granulocyte peptides (Table III), S. aureus J.F.; type: cell-based; conditions: 50 μg/ml, 20 min, 37° C., 10 mM sodium phosphate buffer pH 7.4
Method: as §2

[4] = system: Staphylococcus epidermidis UCLA-622; test: Antibacterial activity of rabbit granulocyte peptides (Table III), S. epidermidis; type: cell-based; conditions: 50 μg/ml, 20 min, 37° C., 10 mM sodium phosphate buffer pH 7.4
Method: as §2

[5] = system: Streptococcus pneumoniae Type III; test: Antibacterial activity of rabbit granulocyte peptides (Table III), S. pneumoniae; type: cell-based; conditions: 50 μg/ml, 20 min, 37° C., 10 mM sodium phosphate buffer pH 7.4
Method: as §2

[6] = system: Streptococcus agalactiae Type-I-A; test: Antibacterial activity of rabbit granulocyte peptides (Table III), S. agalactiae Type-I-A; type: cell-based; conditions: 50 μg/ml, 20 min; for Bactericidal activity log10 No /N, Streptococcus agalactiae Type 1A, pH 5.8: 10 mM phosphate buffer pH 5.8; for Bactericidal activity log10 No /N, Streptococcus agalactiae Type-I-A: 37° C., 10 mM sodium phosphate buffer pH 7.4; for Bactericidal activity log10 No /N, Streptococcus agalactiae Type 1A, "High" ionic strength: buffer pH 7.4 supplemented with 0.14 M NaCl
Method: as §2

[7] = system: Streptococcus agalactiae Type IIIU; test: Antibacterial activity of rabbit granulocyte peptides (Table III), S. agalactiae Type IIIU; type: cell-based; conditions: 50 μg/ml, 20 min, 37° C., 10 mM sodium phosphate buffer pH 7.4
Method: as §2

[8] = system: Listeria monocytogenes 450; test: Antibacterial activity of rabbit granulocyte peptides (Table III), L. monocytogenes; type: cell-based; conditions: 50 μg/ml, 20 min; for Bactericidal activity log10 No /N, Listeria monocytogenes 450, pH 5.8: 10 mM phosphate buffer pH 5.8; for Bactericidal activity log10 No /N, Listeria monocytogenes 450: 37° C., 10 mM sodium phosphate buffer pH 7.4; for Bactericidal activity log10 No /N, Listeria monocytogenes 450, "High" ionic strength: buffer pH 7.4 supplemented with 0.14 M NaCl
Method: as §2

[9] = system: Pseudomonas aeruginosa PAO 579; test: Antibacterial activity of rabbit granulocyte peptides (Table III), P. aeruginosa; type: cell-based; conditions: 50 μg/ml, 20 min; for Bactericidal activity log10 No /N, Pseudomonas aeruginosa PAO 579, pH 5.8: 10 mM phosphate buffer pH 5.8; for Bactericidal activity log10 No /N, Pseudomonas aeruginosa PAO 579: 37° C., 10 mM sodium phosphate buffer pH 7.4; for Bactericidal activity log10 No /N, Pseudomonas aeruginosa PAO 579, "High" ionic strength: buffer pH 7.4 supplemented with 0.14 M NaCl
Method: as §2

[10] = system: Escherichia coli ATCC 29648; test: Antibacterial activity of rabbit granulocyte peptides (Table III), E. coli; type: cell-based; conditions: 50 μg/ml, 20 min, 37° C., 10 mM sodium phosphate buffer pH 7.4
Method: as §2

[11] = system: Klebsiella pneumoniae ATCC 13883; test: Antibacterial activity of rabbit granulocyte peptides (Table III), K. pneumoniae; type: cell-based; conditions: 50 μg/ml, 20 min; for Bactericidal activity log10 No /N, Klebsiella pneumoniae ATCC 13883, pH 5.8: 10 mM phosphate buffer pH 5.8; for Bactericidal activity log10 No /N, Klebsiella pneumoniae ATCC 13883: 37° C., 10 mM sodium phosphate buffer pH 7.4; for Bactericidal activity log10 No /N, Klebsiella pneumoniae ATCC 13883, "High" ionic strength: buffer pH 7.4 supplemented with 0.14 M NaCl
Method: as §2

Serratia marcescens = test: Antibacterial activity of rabbit granulocyte peptides (Table III), S. marcescens; type: cell-based; conditions: 50 μg/ml, 20 min, 37° C., 10 mM sodium phosphate buffer pH 7.4
Method: as §2

[12] = system: Hemophilus influenzae Type 3A; test: Antibacterial activity of rabbit granulocyte peptides (Table III), H. influenzae; type: cell-based; conditions: 50 μg/ml, 20 min, 37° C., 10 mM sodium phosphate buffer pH 7.4
Method: as §2

[13] = system: Bordetella bronchiseptica UCLA-342; test: Antibacterial activity of rabbit granulocyte peptides (Table III), B. bronchiseptica; type: cell-based; conditions: 50 μg/ml, 20 min, 37° C., 10 mM sodium phosphate buffer pH 7.4
Method: as §2

H. influenzae = test: Antibacterial action, % killing (Table II), H. influenzae; type: cell-based, Haemophilus influenzae; conditions: 50 μg/ml peptide, 10^7 bacterial cells/ml, 20 min, 37°
Method: as §1

Substance | Bactericidal activity log10 No /N, Staphylococcus aureus 566 [1] | Bactericidal activity log10 No /N, Staphylococcus aureus 502A [2] | Bactericidal activity log10 No /N, Staphylococcus aureus J.F. [3] | Bactericidal activity log10 No /N, Staphylococcus epidermidis UCLA-622 [4] | Bactericidal activity log10 No /N, Streptococcus pneumoniae Type III [5] | Bactericidal activity log10 No /N, Streptococcus agalactiae Type 1A, pH 5.8 [6] | Bactericidal activity log10 No /N, Streptococcus agalactiae Type-I-A [6] | Bactericidal activity log10 No /N, Streptococcus agalactiae Type 1A, "High" ionic strength [6] | Bactericidal activity log10 No /N, Streptococcus agalactiae Type IIIU [7] | Bactericidal activity log10 No /N, Listeria monocytogenes 450, pH 5.8 [8] | Bactericidal activity log10 No /N, Listeria monocytogenes 450 [8] | Bactericidal activity log10 No /N, Listeria monocytogenes 450, "High" ionic strength [8] | Bactericidal activity log10 No /N, Pseudomonas aeruginosa PAO 579, pH 5.8 [9] | Bactericidal activity log10 No /N, Pseudomonas aeruginosa PAO 579 [9] | Bactericidal activity log10 No /N, Pseudomonas aeruginosa PAO 579, "High" ionic strength [9] | Bactericidal activity log10 No /N, Escherichia coli ATCC 29648 [10] | Bactericidal activity log10 No /N, Klebsiella pneumoniae ATCC 13883, pH 5.8 [11] | Bactericidal activity log10 No /N, Klebsiella pneumoniae ATCC 13883 [11] | Bactericidal activity log10 No /N, Klebsiella pneumoniae ATCC 13883, "High" ionic strength [11] | Bactericidal activity log10 No /N, Serratia marcescens (Serratia marcescens) | further results
IFN-α [reference compound] |  |  |  |  |  |  |  |  |  |  |  |  |  |  |  |  |  |  |  |  | decrease in VSV yield (VSV): 6 log10; decrease in HSV-1 yield (HSV-1): 0.6 log10
gly arg cys val cys arg lys gln 21eu cys ser tyr arg glu arg arg ile gly asp cys lys ile arg gly val arg phe pro phe cys cys pro arg [NP-3b] | 1.7 log10 | 0.3 log10 | 0.8 log10 | 1.7 log10 | > 3.5 log10 | 0.2 log10 | 0.9 log10 | 0.0 log10 | 1.2 log10 | 0.0 log10 | 4.3 log10 | 0.0 log10 | 0.0 log10 | 4.2 log10 | 0.0 log10 | 1.4 log10 | 0.2 log10 | 3.4 log10 | 0.0 log10 | 0.7 log10 | % Killing, S. albus (S. albus): D (<50% killing); % Killing, S. aureus 502A (S. aureus 502A): D (<50% killing); % Killing, L. monocytogenes (L. monocytogenes): B (90-99% killing); % Killing, E. coli (E. coli): C (50-90% killing); % Killing, Ps. aeruginosa (Ps. aeruginosa): A (>99% killing); % Killing, S. marscescens (S. marscescens): B (90-99% killing); Bactericidal activity log10 No /N, Hemophilus influenzae Type 3A [12]: 0.7 log10; Bactericidal activity log10 No /N, Bordetella bronchiseptica UCLA-342 [13]: 0.1 log10
val phe cys thr cys arg gly phe leu cys gly ser gly glu arg ala ser gly ser cys thr ile asn gly val arg his thr leu cys cys arg [NP-5] | 0.4 log10 | 0.2 log10 | 0.1 log10 | 0.4 log10 | 1.9 log10 | 0.0 log10 | 0.5 log10 | 0.0 log10 | 0.4 log10 | 0.1 log10 | 0.5 log10 | 0.2 log10 | 0.1 log10 | 0.7 log10 | 0.0 log10 | 0.2 log10 | 0.1 log10 | 1.2 log10 | 0.0 log10 | 1.2 log10 | Bactericidal activity log10 No /N, Hemophilus influenzae Type 3A [12]: 1.2 log10; Bactericidal activity log10 No /N, Bordetella bronchiseptica UCLA-342 [13]: 0.0 log10
val ser cys thr cys arg arg phe ser cys gly phe gly glu arg ala ser gly ser cys thr val asn gly val arg his thr leu cys cys arg arg [NP-4] | 0.2 log10 | 0.1 log10 | 0.1 log10 | 0.2 log10 | 4.3 log10 | 0.0 log10 | 0.1 log10 | 0.0 log10 | 0.2 log10 | 0.0 log10 | 0.1 log10 | 0.0 log10 | 0.0 log10 | 0.2 log10 | 0.0 log10 | 0.1 log10 | 0.3 log10 | 0.2 log10 | 0.0 log10 | 1.3 log10 | Bactericidal activity log10 No /N, Hemophilus influenzae Type 3A [12]: 1.3 log10; Bactericidal activity log10 No /N, Bordetella bronchiseptica UCLA-342 [13]: 0.1 log10
val val cys ala cys arg arg ala leu cys leu pro arg glu arg arg ala gly phe cys arg ile arg gly arg ile his pro leu cys cys arg arg [NP-1] | > 4.1 log10 | 2.3 log10 | 2.7 log10 | > 4.1 log10 | 3.8 log10 | 0.1 log10 | 2.3 log10 | 0.0 log10 | 3.9 log10 | 0.2 log10 | 2.1 log10 | 0.1 log10 | 0.3 log10 | > 4.2 log10 | 0.1 log10 | 1.9 log10 | 0.6 log10 | 3.0 log10 | 0.1 log10 | 1.0 log10 | % Killing, S. albus (S. albus): B (90-99% killing); % Killing, S. aureus 502A (S. aureus 502A): D (<50% killing); % Killing, L. monocytogenes (L. monocytogenes): A (>99% killing); % Killing, E. coli (E. coli): B (90-99% killing); % Killing, Ps. aeruginosa (Ps. aeruginosa): A (>99% killing); % Killing, H. influenzae (H. influenzae): A (>99% killing); Bactericidal activity log10 No /N, Hemophilus influenzae Type 3A [12]: > 1.1 log10; Bactericidal activity log10 No /N, Bordetella bronchiseptica UCLA-342 [13]: 0.1 log10

From patent US4705777A, “Cationic oligopeptides having microbicidal activity” (priority 1985, dated 1987)
